According to US20100273876A1, “ANTIBACTERIAL FORMULATION COMPRISING A DIALKYL SULPHOSUCCINATE AND A CARBANILIDE ANTIBACTERIAL AGENT” (priority 2007, published 2010):

Tests used:
Strep. mutans ATCC 25175 [1] = test: MIC assay, liquid medium; type: cell-based, Streptococcus mutans
Protocol: (§1) The S. mutans was cultured and maintained on Wilkins-Chalgren Anaerobe Medium (agar and broth) at pH 7.0 supplemented with 1 g/L glucose; all cultures were incubated at 37° C. for 48 h in an atmosphere containing 5% CO2.
(§2) This is a standard international method for quantitatively assessing the antimicrobial activity of a compound in a liquid medium. The method used a sterile 96-well microtitre plate, capable of holding about 200 μl of liquid per well. The wells contained liquid culture medium and ranges of decreasing concentrations of the relevant test compound in doubling dilutions (eg, 1000, 500, 250, 125 . . . μg/ml, etc. down to 0.49 μg/ml). The culture media were as described above.
(§3) The wells were inoculated with a liquid suspension of freshly grown micro-organism and incubated under the conditions described above. After incubation, the microtitre plate was examined visually (with the aid of a light box) for cloudiness in each well, which would indicate microbial growth. The MIC value was recorded as the lowest concentration of test compound required to inhibit microbial growth, ie, the lowest concentration for which the liquid in the well remained clear.
(§4) The assays included both negative (culture medium with no micro-organisms) and positive (culture medium plus diluting solvent plus micro-organism) controls.

[2] = tested on: Por. gingivalis NCTC 11834; test: (S)DDA disc diffusion; type: cell-based, Porphyromonas gingivalis; settings: for SDDA with TCC: 200 μg DOS salt + 200 μg TCC on one disc; for DDA: 200 μg per disc
Protocol: (§5) The P. gingivalis strains were cultured and maintained on Wilkins-Chalgren Anaerobe Medium (agar and broth) at pH 7.0; all cultures were incubated anaerobically at 37° C. for 5-7 days.
(§6) A sterile paper disc was impregnated with a sample of the test compound in a suitable solvent and 30 minutes allowed for the solvents to evaporate (where possible). The disc was then placed on an agar plate onto which the test micro-organism had been inoculated. The plate was then incubated under the conditions described above, following which it was examined visually for signs of microbial growth. If the test compound had antimicrobial activity, a circular zone of no growth would be obtained around the disc. The diameter of this zone of “inhibition” was measured using a ProtoCOL™ automated zone sizer (Synbiosis, Cambridge, UK). In general, a greater diameter and/or area of the zone of inhibition indicates a greater antimicrobial activity in the relevant test compound, although other factors such as test compound mobility through the agar gel may also influence the result.
(§7) Two test a compounds A and B were placed on a single paper disc and the above described DDA procedure repeated. An increase in diameter of the zone of inhibition, compared to the greater of the zone diameters for the two compounds individually, was taken to indicate potential antimicrobial synergy. In practical terms, an increase of greater than 5 mm could be treated as significant.
(§8) For the (S)DDA experiments; 200 μg of the DOS salts and/or the TCC were loaded onto each disc for Por. gingivalis experiments. For the Strep. mutans experiments, 200 μg of the TCC and 50 μg of DOSS were used on each disc. All the experiments were conducted in triplicate.

[3] = tested on: Por. gingivalis NCTC 11834; test: MBC assay; type: cell-based, Porphyromonas gingivalis
Protocol: (§9) The P. gingivalis strains were cultured and maintained on Wilkins-Chalgren Anaerobe Medium (agar and broth) at pH 7.0; all cultures were incubated anaerobically at 37° C. for 5-7 days. This assay, normally carried out after an MIC assay, determines the rnininiurn concentration of a compound that is lethal to the micro-organism being tested. […] These samples were then individually sub-cultured on antibiotic-free agar medium, under the incubation conditions described above. Following incubation they were examined visually for microbial growth.

P. acnes NCTC 737 [4] = test: Minimum inhibitory concentration (MIC) assay, liquid medium; type: cell-based, Propionibacterium acnes
Protocol: (§10) The propionibacteria were cultured and maintained on Wilkins-Chalgren Anaerobe Medium (agar and broth) at pH 6.0; all cultures were incubated anaerobically at 37° C. for 72 hours.
as §2, §3, §4

P. acnes NCTC 737 [5] = test: Minimum bactericidal concentration (MBC) assay; type: cell-based, Propionibacterium acnes
Protocol: as §9, with “propionibacteria” for “P. gingivalis strains”, “6.0;” for “7.0;”, “72 hours.” for “5-7 days.”

Strep. mutans ATCC 25175 [6] = test: (S)DDA disc diffusion; type: cell-based, Streptococcus mutans; settings: 200 μg per disc
Protocol: as §1, §6, §7, §8

P. acnes NCTC 737 [7] = test: Disc diffusion / synergy disc diffusion assay ((S)DDA); type: cell-based, Propionibacterium acnes; settings: for SDDA area increase / SDDA increase: 200 μg DOS salt + 200 μg TCC; for SDDA with TCC: 200 μg DOS salt + 200 μg TCC on one disc; for SDDA increase: vs greater single-compound zone; for DDA + salt: sodium chloride 100 mM; for DDA + lipid: triolein 1% v/v
Protocol: as §10, §6, §7
Both the DDA and the SDDA test may be carried out using an agar gel supplemented with lipid and/or salt to simulate some of the major components present in human skin and to assess whether these substances might reduce the antimicrobial activity observed for the test compound. Performance under these conditions can provide a more reliable indication of activity on topical application. The supplements used in Examples 1, 11, 12 and 13 below were lipid (either Tween™ 80 at 1% v/v (Example 1) or triolein at 1% v/v (Examples 11, 12 and 13) and sodium chloride (100 mM).

[8] = tested on: Por. gingivalis NCTC 11834; test: MIC assay, liquid medium; type: cell-based, Porphyromonas gingivalis
Protocol: as §5, §2, §3, §4

Strep. mutans ATCC 25175 [9] = test: MBC assay; type: cell-based, Streptococcus mutans
Protocol: as §9, with “S. mutans was” for “P. gingivalis strains were”, “7.0 supplemented with 1 g/L glucose;” for “7.0;”, “incubated” for “incubated anaerobically”, “48 h in an atmosphere containing 5% CO2.” for “5-7 days.”

Por. gingivalis 381 = test: Biofilm disruption assay on hydroxyapatite discs; type: cell-based, Porphyromonas gingivalis; settings: Por. gingivalis 381 biofilm, DOSS 0.5% (w/v), CHX 0.2% (w/v)
Protocol: (§11) This assay was designed to determine quantitatively the relative potency of a test compound to disrupt (effectively kill) biofilms formed by a test organism on hydroxyapatite (HA) discs.
(§12) Biofilms were formed on sterile dense ceramic HA discs 7 mm diameter x 1.8 mm thick (Clarkson Chromatography) by placing the discs in the appropriate liquid media (as described above) inoculated with the test organism (0.5×10^8 cfu/ml). The HA discs were then incubated at 37° C. for ˜48 h in a 5% CO2 atmosphere (for Strep. mutans ATCC 25175) or ˜96 h under anaerobic conditions (for Por. gingivalis 381). Following the incubation period the supernatant was removed from the wells containing the HA discs and the discs were washed×3 with fresh media to ensure all planktonic cells were removed. The HA discs were then transferred to sterile bijoux bottles containing 1 ml of phosphate buffered saline (PBS) plus test compound(s) at the required concentration. After a set time period (usually 2 and/or 5 min), the HA disc was transferred to another sterile bijoux containing 1 ml of fresh growth media. Adherent cells were then harvested by vigorous vortexing for 2 minutes. A sample was then taken, serially diluted 10-fold in fresh growth media and inoculated onto agar plates in triplicate. Untreated HA discs, and HA discs added to PBS containing only the solvents used to dissolve the test compound(s), acted as controls.
(§13) The plates were then incubated as described above and subsequently examined visually for growth. Colonies were counted at an appropriate serial dilution (5-50 individual colonies visible) with the aid of a colony counter. These measurements were then converted to numbers of colony forming units (cfu), using the formula: cfu/ml=number of colonies×serial dilution factor×100 (as only a 10 μl sample was taken).
(§14) These cfu values were then converted into log10 values and plotted graphically against time of sample removal.
(§15) At each time point, samples were assessed in triplicate; the final cfu/ml value was an average (mean) of the three readings.
(§16) Biofilm disruption assays, as described above, were carried out using DOSS as the test compound and chlorhexidine (CHX) as a positive control. For these experiments, the DOSS was tested at 0.5% w/v against Por. gingivalis and 1% w/v against Strep. mutans. The ahlorhexidine was tested at a concentration of 0.2% w/v against both micro-organisms. The DOSS was dissolved in ethanol and the chlorhexidine in distilled water. All the experiments were conducted in triplicate.

Strep. mutans ATCC 25175 [10] = test: Biofilm disruption assay on hydroxyapatite discs; type: cell-based, Streptococcus mutans; settings: Strep. mutans ATCC 25175 biofilm, DOSS 1.0% (w/v), CHX 0.2% (w/v)
Protocol: as §11, §12, §13, §14, §15, §16

[11] = 200 μg of each test compound per disc (Example 2)
[12] = 200 μg per disc, pH 6.0, single replicates

Row | MIC (Strep. mutans ATCC 25175 [1]) | MIC/MBC ratio [3] | MIC (P. acnes NCTC 737 [4]) | MIC [8] | SMILES | SDDA area increase [2] | SDDA increase [2] | SDDA with TCC [2] | DDA [2] | MBC [3] | MBC (P. acnes NCTC 737 [5]) | MIC/MBC ratio (P. acnes NCTC 737 [5]) | DDA (Strep. mutans ATCC 25175 [6]) | SDDA area increase (P. acnes NCTC 737 [7]) | SDDA with TCC (P. acnes NCTC 737 [7]) | SDDA increase (P. acnes NCTC 737 [7]) | DDA (P. acnes NCTC 737 [7]; [11]) | DDA (P. acnes NCTC 737 [7]; [12]) | DDA + salt (P. acnes NCTC 737 [7]; 200 μg per disc, pH 6.0) | DDA + lipid (P. acnes NCTC 737 [7]; 200 μg per disc, pH 6.0) | MBC (Strep. mutans ATCC 25175 [9]) | other results
1 | 15.6 µg/mL | 0.5 | 7.8 µg/mL | 3.9 µg/mL | CCCCC(CC)COC(=O)CC(C(=O)OCC(CC)CCCC)S(=O)(=O)[O-].[K+] (stereo not drawn) [DOS potassium salt] | 43.78% | 10.18 mm | 61.31 mm | 51.13 mm | 7.8 µg/mL | 62.5 µg/mL | 0.125 | 35.28 mm | 99.37% | 36.68 mm | 10.7 mm | 25.91 mm | 46.57 mm | 46.26 mm | 48.12 mm | 31.25 µg/mL | MIC/MBC ratio (Strep. mutans ATCC 25175 [9]): 0.5
2 | 15.6 µg/mL | 0.5 | 15.6 µg/mL | 3.9 µg/mL | CCCCC(CC)COC(=O)CC(C(=O)OCC(CC)CCCC)S(=O)(=O)[O-].CCCCC(CC)COC(=O)CC(C(=O)OCC(CC)CCCC)S(=O)(=O)[O-].[Ca+2] (stereo not drawn) [DOS calcium salt] | 38.64% | 9.24 mm | 61.31 mm | 52.07 mm | 7.8 µg/mL | >31.25 µg/mL | <0.5 | 32.13 mm | 128.93% | 36.16 mm | 12.26 mm | 23.9 mm | 44.71 mm | 43.16 mm | 49.36 mm | 31.25 µg/mL | MIC/MBC ratio (Strep. mutans ATCC 25175 [9]): 0.5
3 | – | – | – | – | [H]/N=C(\N/C(=N/[H])NCCCCCCNC(=N)NC(=N)Nc1ccc(Cl)cc1)Nc1ccc(Cl)cc1 [CHX, chlorhexidine] | – | – | – | – | – | – | – | – | – | – | – | – | – | – | – | – | Viable cell counts (Por. gingivalis 381; 0 min): 7.53 log10 cfu/ml; Viable cell counts (Por. gingivalis 381; 2 min): 6.50 log10 cfu/ml; Viable cell counts (Por. gingivalis 381; 5 min): 6.76 log10 cfu/ml; Viable cell counts (Strep. mutans ATCC 25175 [10]; 0 min): 6.56 log10 cfu/ml; Viable cell counts (Strep. mutans ATCC 25175 [10]; 2 min): 6.12 log10 cfu/ml; Viable cell counts (Strep. mutans ATCC 25175 [10]; 5 min): 5.99 log10 cfu/ml
